We go through 68 molecules from patent publication US20150246938A1, “NOVEL OLEFIN DERIVATIVE” (SHIONOGI & CO., LTD., priority 2011, published 2015).

Where two headings read alike, the source gives them in different places.

As usually defined, the IC50 is the concentration that inhibits the measured activity by half.

In the test the target is T1, recombinant human ACC2 (Homo sapiens, UniProt O00763).
T1 construct: a cDNA encoding human ACC2 (27-2458) was cloned from human kidney cDNA library (Clontech); His-tag (N); made in house; host or cells: Sf-9 insect cells (Bac-to-Bac baculovirus)
Kind of test: Measurement of inhibitory activity on human ACC2 (MALDI-TOF MS, acetyl CoA to malonyl CoA conversion). It is filed as biochemical.

The mark [1] stands for this setting: inhibition activity on human ACC2, Table 79, read-out: IC50.
[2] abbreviates: inhibition activity on human ACC2, Table 84, read-out: IC50.
[3] abbreviates: inhibition activity on human ACC2, Table 80, read-out: IC50.
Where [4] appears, read: inhibition activity on human ACC2, untitled table (Table 81), read-out: IC50.
Where [5] appears, read: inhibition activity on human ACC2, Table 82, read-out: IC50.

T1 sequence (O00763 27-2458): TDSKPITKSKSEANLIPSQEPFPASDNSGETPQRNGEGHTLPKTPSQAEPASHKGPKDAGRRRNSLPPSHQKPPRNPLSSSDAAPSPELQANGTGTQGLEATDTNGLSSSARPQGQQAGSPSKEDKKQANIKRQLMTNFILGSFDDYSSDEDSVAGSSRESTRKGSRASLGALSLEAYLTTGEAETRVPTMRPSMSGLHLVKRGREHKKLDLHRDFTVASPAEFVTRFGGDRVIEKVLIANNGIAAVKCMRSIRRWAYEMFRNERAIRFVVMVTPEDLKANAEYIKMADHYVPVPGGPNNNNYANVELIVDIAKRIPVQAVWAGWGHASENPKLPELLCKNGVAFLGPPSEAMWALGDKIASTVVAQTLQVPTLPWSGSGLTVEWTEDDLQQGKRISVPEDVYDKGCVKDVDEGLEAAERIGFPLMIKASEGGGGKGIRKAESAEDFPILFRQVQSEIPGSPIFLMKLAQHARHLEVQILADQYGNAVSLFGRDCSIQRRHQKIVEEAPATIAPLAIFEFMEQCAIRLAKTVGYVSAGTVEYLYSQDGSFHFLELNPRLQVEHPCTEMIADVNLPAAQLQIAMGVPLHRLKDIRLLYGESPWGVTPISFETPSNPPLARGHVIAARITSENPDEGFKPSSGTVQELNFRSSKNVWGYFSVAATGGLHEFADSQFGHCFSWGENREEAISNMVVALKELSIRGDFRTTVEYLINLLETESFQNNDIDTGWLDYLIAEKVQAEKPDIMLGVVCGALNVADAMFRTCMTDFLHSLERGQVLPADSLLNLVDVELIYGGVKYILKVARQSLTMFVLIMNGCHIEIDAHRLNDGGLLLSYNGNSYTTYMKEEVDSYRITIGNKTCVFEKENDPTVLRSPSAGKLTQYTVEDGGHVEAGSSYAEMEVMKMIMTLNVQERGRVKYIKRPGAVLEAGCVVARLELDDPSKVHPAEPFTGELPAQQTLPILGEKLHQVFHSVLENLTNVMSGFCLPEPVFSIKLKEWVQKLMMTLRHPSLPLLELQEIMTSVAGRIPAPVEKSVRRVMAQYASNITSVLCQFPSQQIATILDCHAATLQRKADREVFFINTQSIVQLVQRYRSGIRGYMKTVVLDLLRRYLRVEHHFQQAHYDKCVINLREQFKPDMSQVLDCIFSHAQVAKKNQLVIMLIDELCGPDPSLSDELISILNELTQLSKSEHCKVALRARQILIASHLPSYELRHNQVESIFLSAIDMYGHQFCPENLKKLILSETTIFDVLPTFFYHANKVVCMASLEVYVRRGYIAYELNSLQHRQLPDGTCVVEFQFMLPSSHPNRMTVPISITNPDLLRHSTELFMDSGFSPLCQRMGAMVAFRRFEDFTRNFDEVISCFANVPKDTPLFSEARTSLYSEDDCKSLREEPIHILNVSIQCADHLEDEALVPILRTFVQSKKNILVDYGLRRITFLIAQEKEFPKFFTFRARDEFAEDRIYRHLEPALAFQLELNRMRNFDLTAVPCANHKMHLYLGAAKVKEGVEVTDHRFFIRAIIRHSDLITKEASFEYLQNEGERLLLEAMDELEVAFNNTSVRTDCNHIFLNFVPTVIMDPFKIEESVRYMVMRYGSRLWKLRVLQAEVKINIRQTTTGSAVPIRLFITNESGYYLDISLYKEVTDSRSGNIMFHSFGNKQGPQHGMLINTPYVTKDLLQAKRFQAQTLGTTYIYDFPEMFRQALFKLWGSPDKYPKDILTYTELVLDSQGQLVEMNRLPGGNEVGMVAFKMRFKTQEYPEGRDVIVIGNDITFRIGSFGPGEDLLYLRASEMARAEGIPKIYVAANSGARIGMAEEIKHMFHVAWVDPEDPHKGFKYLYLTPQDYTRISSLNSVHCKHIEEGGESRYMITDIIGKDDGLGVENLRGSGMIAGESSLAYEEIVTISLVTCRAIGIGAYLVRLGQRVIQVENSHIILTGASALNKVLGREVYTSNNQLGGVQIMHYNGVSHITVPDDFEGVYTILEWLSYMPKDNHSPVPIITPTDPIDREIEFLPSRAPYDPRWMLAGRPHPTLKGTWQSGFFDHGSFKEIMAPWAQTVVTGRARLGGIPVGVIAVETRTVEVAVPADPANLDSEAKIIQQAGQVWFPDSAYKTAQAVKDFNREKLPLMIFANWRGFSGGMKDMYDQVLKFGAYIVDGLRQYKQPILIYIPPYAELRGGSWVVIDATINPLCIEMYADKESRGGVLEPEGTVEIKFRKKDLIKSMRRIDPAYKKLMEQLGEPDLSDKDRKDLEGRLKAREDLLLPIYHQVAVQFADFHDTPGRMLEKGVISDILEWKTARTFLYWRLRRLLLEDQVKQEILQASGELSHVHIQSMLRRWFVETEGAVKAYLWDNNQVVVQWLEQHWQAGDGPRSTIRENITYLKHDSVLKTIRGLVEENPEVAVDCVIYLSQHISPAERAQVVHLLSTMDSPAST
Protocol: To express human ACC2, Sf-9 cells were infected with recombinant baculovirus. After infected cells were disrupted, the filtrated lysate was subjected to Ni-affinity chromatography and anion-exchange chromatography. The fractions containing human ACC2 protein were pooled as recombinant human ACC2 solution.
Recombinant human ACC1 and recombinant human ACC2, which were prepared by the method mentioned above, were preincubated with assay buffer solution (50 mM HEPES-KOH (pH 7.4), 10 mM magnesium chloride, 6-10 mM potassium citrate, 4 mM reduced form of glutathione, 1.5 mg/ml bovine serum albumin) for one hour. Then, 0.2 μL of each this invention compound solution (in DMSO) were dispensed to 384-well microplate, 5 μL of the preincubated enzyme solution and 5 μL of substrate solution (50 mM HEPES-KOH (pH 7.4), 1 mM ATP, 0.8 mM acetyl CoA and 25-50 mM potassium bicarbonate) were added to microplate. After centrifugation and shaking, the reaction mixtures were incubated in a humidified box at room temperature for 1 to 3 hours. After the incubation, the enzyme reactions were stopped by the addition of EDTA. Then, after the samples were cocrystallized with CHCA (α-cyano-4-hydroxy cinnamic acid) matrices on MALDI target plate, by using the matrix assist laser deionization time-of-flight mass spectrometer (MALDI-TOF MS), samples were measured in reflector negative mode. Deprotonated ions of acetyl CoA (AcCoA) of substrate and malonyl CoA (MalCoA) of the reaction product were detected, then, the conversion rates of acetyl CoA to malonyl CoA was calculated by the intensity of [MalCoA-H]-/(Intensity of [MalCoA-H]-+Intensity of [AcCoA-H]-) using each signal strength. […] In addition, potassium citrate concentrations in assay buffer solution, potassium hydrogen carbonate concentrations in substrate solution and incubation time were adjusted by each lot of enzyme.

`COc1cncc(Oc2ccc(/C=C/[C@H](C)NC(C)=O)cn2)c1` [Compound I-34]: the concentration for half-maximal inhibition (IC50) under setting [1] came to 7100 nM.
On to `CC(=O)N[C@@H](C)/C=C/c1ccc(Oc2ccc3nc(C(C)C)oc3c2)nc1` [Compound I-500], for which the IC50 under setting [2] amounted to 8.9 nM.
On to `CCCc1ccc(Oc2ccc(/C=C/[C@H](C)NC(C)=O)cn2)c(C)c1` [Compound I-437], for which the 50% inhibitory concentration (IC50) under setting [2] was 33 nM.
On to `CC(=O)N[C@@H](C)/C=C/c1ccc(Oc2ccc3nc(C(F)(F)F)sc3c2Cl)nc1` [Compound I-491], for which the IC50 under setting [2] was 5.8 nM.
Consider `C[C@@H](/C=C/c1cnc(Oc2ccc(OCC3CC3)cc2Cl)s1)NC(=O)c1ccnc(-c2ncco2)c1` [Compound I-139], for which the IC50 under setting [3] amounted to 66 nM.
For `CC(=O)N[C@@H](C)/C=C/c1ccc(Oc2ccc3nc(C(C)(C)C)sc3c2)nc1` [Compound I-504], the IC50 under setting [2] is 6.5 nM.
For `COc1cccc(C(=O)N[C@@H](C)/C=C/c2cnc(Oc3ccc(OCC4CC4)cc3Cl)s2)c1` [Compound I-156], the 50% inhibitory concentration (IC50) under setting [3] is 930 nM.
With `COc1c(OCC2CC2)ccc(Oc2cnc(/C=C/[C@H](C)NC(C)=O)cn2)c1Cl` [Compound I-394], the IC50 is 12 nM.
With `CSCCC(=O)N[C@@H](C)/C=C/c1cnc(Oc2ccc(OCC3CC3)cc2Cl)s1` [Compound I-72], the 50% inhibitory concentration (IC50) under setting [1] was found to be 230 nM.
With `COc1cc(Oc2ccc(/C=C/[C@H](C)NC(C)=O)cn2)ccc1F` [Compound I-259], the IC50 under setting [4] was determined as 400 nM.
Take `C[C@@H](/C=C/c1cnc(Oc2ccc(OCC3CC3)cc2Cl)s1)NC(=O)CCCN1CCCC1=O` [Compound I-86]: the IC50 under setting [1] is 440 nM.
Regarding `COCCOc1ccc(Oc2ccc(/C=C/[C@H](C)NC(C)=O)cn2)c(Cl)c1` [Compound I-296], the half-inhibitory concentration (IC50) under setting [4] is 110 nM.
Regarding `CCCc1cc(Cl)cc(Oc2ccc(/C=C/[C@H](C)NC(C)=O)cn2)c1` [Compound I-470], under setting [2], the IC50 is 230 nM.
Consider `CC(=O)Nc1ncc(C(=O)N[C@@H](C)/C=C/c2cnc(Oc3ccc(OCC4CC4)cc3Cl)s2)s1` [Compound I-159], for which the concentration for half-maximal inhibition (IC50) under setting [3] is 220 nM.
As to `CCCc1ccc(Oc2ccc(/C=C/[C@H](C)NC(=O)COC(C)=O)cn2)c(Cl)c1` [Compound I-375], the IC50 under setting [5] came out at 57 nM.
Consider `CCNC(=O)c1cc(C(=O)N[C@@H](C)/C=C/c2cnn(Cc3ccc(Cl)c(Cl)c3)c2)ccn1` [Compound I-310], for which the IC50 under setting [4] is 1300 nM.
For the molecule `CCCc1ccc(Oc2ncc(/C=C/[C@H](C)NC(C)=O)cn2)c(Cl)c1` [Compound I-432], under setting [2], the half-inhibitory concentration (IC50) was 520 nM.
As for `C[C@@H](/C=C/c1cnc(Oc2ccc(OCC3CC3)cc2Cl)s1)NC(=O)NCC(F)(F)F` [Compound I-193], the concentration for half-maximal inhibition (IC50) under setting [3] was determined as 140 nM.
`C/C=C(\CC)c1ccc(Oc2ccc(/C=C/[C@H](C)NC(C)=O)cn2)c(Cl)c1` [Compound I-476]: the 50% inhibitory concentration (IC50) under setting [2] worked out at 240 nM.
For `Cc1nc(C)c(-c2cc(C(=O)N[C@@H](C)/C=C/c3cnc(Oc4ccc(OCC5CC5)cc4Cl)s3)ccn2)s1` [Compound I-138], under setting [3], the 50% inhibitory concentration (IC50) was determined as 2300 nM.
For `CC(=O)N[C@@H](C)/C=C/c1ccc(Oc2ccc(-c3ccc(C(F)(F)F)cn3)cc2Cl)nc1` [Compound I-421], the concentration for half-maximal inhibition (IC50) was 52 nM.
Consider `CC(=O)N[C@@H](C)/C=C/c1cnc(Oc2cccc(OCC3CC3)c2Cl)s1` [Compound I-7], for which the IC50 under setting [1] worked out at 31 nM.
Turning to `CC(=O)N[C@@H](C)/C=C/c1ccc(Oc2ccc(CCC3CC3)cc2Cl)nc1` [Compound I-287], the concentration for half-maximal inhibition (IC50) under setting [4] turned out to be 18 nM.
On to `CC(=O)N[C@@H](C)/C=C/c1ccc(Oc2cccc(OC(C)C)c2Cl)nc1` [Compound I-47], for which the half-maximal inhibitory concentration (IC50) under setting [1] worked out at 25 nM.
Turning to `CC(=O)N[C@@H](C)/C=C/c1ccc(Oc2cncc(OCC3CC3)c2)nc1` [Compound I-293], under setting [4], the IC50 was 1300 nM.
For the molecule `CC(=O)N[C@@H](C)/C=C/c1ccc(Oc2cc3c(cc2Cl)OCC3)nc1` [Compound I-479], the half-maximal inhibitory concentration (IC50) under setting [2] came to 440 nM.
`CCOc1ccc(Oc2ncc(/C=C/[C@H](C)NC(C)=O)cc2Cl)c(Cl)c1` [Compound I-334]: under setting [5], the IC50 came out at 47 nM.
With `CC(=O)N[C@@H](C)/C=C/c1ccc(Oc2ccc(N3CCCC3)cc2Cl)nc1` [Compound I-32], the IC50 under setting [1] was found to be 14 nM.
Still for that read-out and setting: for `CC(=O)N[C@@H](C)/C=C/c1cnc(Oc2ccc(NCC3CC3)cc2Cl)nc1` [Compound I-54] the value was 430 nM; for `C[C@@H](/C=C/c1cnc(Oc2ccc(OCC3CC3)cc2Cl)s1)NC(=O)C1CC1` [Compound I-76], 30 nM.
`CC(=O)N[C@@H](C)/C=C/c1ccc(Oc2ccc(-c3ccc(F)cc3)cc2)nc1` [Compound I-514]: the half-inhibitory concentration (IC50) under setting [2] stood at 96 nM.
With `CCOc1ccc(COc2ccc(/C=C/[C@H](C)NC(C)=O)cn2)cc1` [Compound I-15], the IC50 under setting [1] was 71 nM.
Turning to `CC(=O)N[C@@H](C)/C=C/c1ccc(Oc2ccc3nc(C(C)C)sc3c2Cl)nc1` [Compound I-477], the IC50 under setting [2] stood at 6.9 nM.
Take `CCCc1ccc(Oc2ccc(/C=C/[C@H](C)NC(=O)CNC(=O)OC(C)(C)C)cn2)c(Cl)c1` [Compound I-386]: the half-maximal inhibitory concentration (IC50) is 400 nM.
For the molecule `CCCOc1ccc(Oc2ccc(/C=C/[C@H](C)NC(C)=O)cn2)c(Cl)c1` [Compound I-38], the IC50 under setting [1] is 9.1 nM.
Regarding `CC(=O)N[C@@H](C)/C=C/c1cnc(Oc2cccc(OC(C)C)c2C)s1` [Compound I-9], under setting [1], the IC50 is 82 nM.
As to `CC(=O)N[C@@H](C)/C=C/c1ccc(Oc2ccc3c(c2)OCCC3)nc1` [Compound I-449], the IC50 under setting [2] was found to be 130 nM.
As to `CC(=O)N[C@@H](C)/C=C/c1ccc(Oc2ccc(-c3ncccn3)cc2Cl)nc1` [Compound I-418], the half-inhibitory concentration (IC50) came out at 97 nM.
As for `CCCc1ncc(Oc2ccc(/C=C/[C@H](C)NC(C)=O)cn2)cc1C` [Compound I-370], the IC50 under setting [5] amounted to 280 nM.
On to `CC(=O)N[C@@H](C)/C=C/c1ccc(Oc2ccc3c(c2)CCC3)nc1` [Compound I-397], for which the IC50 was 15 nM.
Consider `CC(=O)N[C@@H](C)/C=C/c1ccc(Oc2ccc(-c3nc4ccccc4o3)cc2Cl)nc1` [Compound I-414], for which the concentration for half-maximal inhibition (IC50) worked out at 36 nM.
In the case of `CC(=O)N[C@@H](C)/C=C/c1ccc(Oc2ccc(C3CC3C)cc2Cl)nc1` (some centres unmarked) [Compound I-494], the IC50 under setting [2] is 14 nM.
With `CC(=O)N[C@@H](C)/C=C/c1ccc(Oc2cc3sc(C(C)C)nc3cc2Cl)nc1` [Compound I-488], the IC50 under setting [2] was determined as 11 nM.
As to `CC(=O)N[C@@H](C)/C=C/c1ccc(Oc2ccc(-c3cnoc3)cc2Cl)nc1` [Compound I-349], the half-maximal inhibitory concentration (IC50) under setting [5] was 6600 nM.
As for `CCCc1ccc(Oc2ccc(/C=C/[C@H](C)NC(=O)CC(=O)OC(C)(C)C)cn2)c(Cl)c1` [Compound I-405], the IC50 came to 1200 nM.
In the case of `CC(=O)N[C@@H](C)/C=C/c1cnc(Oc2ccc(OCC3CC3)c(Cl)c2)cn1` [Compound I-291], the IC50 under setting [4] amounted to 18 nM.
`CC(=O)N[C@@H](C)/C=C/c1cnc(Oc2cc(O)c(OCC3CC3)cc2Cl)nc1` [Compound I-406]: the IC50 stood at 300 nM.
As to `C[C@@H](/C=C/c1cnn(Cc2ccc(OCC3CC3)cc2Cl)c1)NC(=O)c1ccon1` [Compound I-174], under setting [3], the 50% inhibitory concentration (IC50) came out at 2600 nM.
Regarding `CC(=O)N[C@@H](C)/C=C/c1ccc(Oc2ccc(-c3ccc(C#N)cc3)cc2Cl)nc1` [Compound I-345], the IC50 under setting [5] is 52 nM.
With `CC(=O)N[C@@H](C)/C=C/c1ccc(Oc2ccc(C3CC3)cc2Cl)nc1` [Compound I-266], under setting [4], the IC50 stood at 26 nM.
Turning to `CC(=O)N[C@@H](C)/C=C/c1ccc(Oc2ccc3c(c2Cl)CCC3)nc1` [Compound I-435], the IC50 under setting [2] is 24 nM.
`CC(=O)N[C@@H](C)/C=C/c1ccc(Oc2ccc(Br)c(Cl)c2)nc1` [Compound I-289]: under setting [4], the 50% inhibitory concentration (IC50) was found to be 28 nM.
On to `COC(=O)c1ccn(CC(=O)N[C@@H](C)/C=C/c2cnc(Oc3ccc(OCC4CC4)cc3Cl)s2)n1` [Compound I-113], for which, under setting [1], the 50% inhibitory concentration (IC50) was determined as 480 nM.
Regarding `CCOc1ccc(Oc2cnc(/C=C/[C@H](C)NC(C)=O)cn2)c(Cl)c1` [Compound I-286], the IC50 under setting [4] stood at 48 nM.
Still for that read-out and setting: the same measure for `CC(=O)N[C@@H](C)/C=C/c1ccc(Oc2ccc(NC(=O)CCCCl)cc2Cl)nc1` [Compound I-256]: 50 nM.
In the case of `CC(=O)N[C@@H](C)/C=C/c1ccc(Oc2ccc(Oc3cncs3)cc2Cl)nc1` [Compound I-453], the IC50 under setting [2] is 730 nM.
In the case of `CC(C)S(=O)(=O)NCCCC(=O)N[C@@H](C)/C=C/c1cnc(Oc2ccc(OCC3CC3)cc2Cl)s1` [Compound I-119], under setting [3], the 50% inhibitory concentration (IC50) worked out at 61 nM.
Turning to `C[C@@H](/C=C/c1cnc(Oc2ccc(OCC3CC3)cc2Cl)s1)NC(=O)CC(N)=O` [Compound I-116], the concentration for half-maximal inhibition (IC50) under setting [1] is 150 nM.
For the molecule `CCOc1cc(F)cc(Oc2ccc(/C=C/[C@H](C)NC(C)=O)cn2)c1` [Compound I-276], the IC50 under setting [4] is 150 nM.
Consider `CC(=O)N[C@@H](C)/C=C/c1ccc(Oc2ccc(N3CCCCC3)cc2Cl)nc1` [Compound I-383], for which the IC50 was found to be 29 nM.
`CC(=O)NC(C)/C(C)=C/c1ccc(Oc2ccc(O)cc2Cl)nc1` (centres unmarked) [Compound I-283]: the half-maximal inhibitory concentration (IC50) under setting [4] worked out at 3200 nM.
Turning to `CC(=O)N[C@@H](C)/C=C/c1ccc(Oc2ccc(C3CCC3)cc2Cl)nc1` [Compound I-401], the IC50 stood at 56 nM.
For `C[C@@H](/C=C/c1cnc(Oc2ccc(OCC3CC3)cc2Cl)s1)NC(=O)Cc1ccncc1` [Compound I-122], the IC50 under setting [3] stood at 150 nM.
For `COc1ccc(-c2ccc(Oc3ccc(/C=C/[C@H](C)NC(C)=O)cn3)c(Cl)c2)cn1` [Compound I-348], the 50% inhibitory concentration (IC50) under setting [5] was found to be 210 nM.
Take `COCCNC(=O)N[C@@H](C)/C=C/c1cnc(Oc2ccc(OCC3CC3)cc2Cl)s1` [Compound I-189]: the IC50 under setting [3] stood at 240 nM.
Take `CC(=O)N[C@@H](C)/C=C/c1ccc(Oc2ccc(OCC3CC3)nc2)nc1` [Compound I-33]: the half-inhibitory concentration (IC50) under setting [1] was 12 nM.
Same read-out and setting: for `C[C@@H](/C=C/c1cnc(Oc2ccc(OCC3CC3)cc2Cl)s1)NC(=O)C1(C#N)CC1` [Compound I-97] the value was 120 nM.
Take `CCNC(=O)c1cc(C(=O)N[C@@H](C)/C=C/c2cnn(Cc3ccc(Oc4ccccc4)cc3)c2)ccn1` [Compound I-307]: the half-maximal inhibitory concentration (IC50) under setting [4] was 48 nM.
